The subject of one assay is HBsAg in HepG2.2.15 cells. The assay is described as follows: HBsAg assay: inhibition of HBsAg in HepG2.2.15 cells (chemiluminescence immunoassay of supernatant). As to conditions: Hepatitis B virus, HepG2.2.15, 144 h, read-out: sAg EC50, HepG2.2.15 cells, supernatant collected at day 6 after exposure, HBsAg CLIA. The class given is cell-based, hepatitis B virus. The protocol: Inhibition of HBsAg was determined in HepG2.2.15 cells. Cells were maintained in culture medium containing 10% fetal calf serum, […], Glutamine, penicillin/streptomycin. Cells were seeded in 96-well collagen-coated plate at a density of 30,000 cells/well. Serially diluted compounds were added to cells next day at the final DMSO concentration of 0.5%. Cells were incubated with compounds for 2-3 days, after which medium was removed. Fresh medium containing compounds was added to cells for additional 3-4 days. At day 6 after exposure of compounds, supernatant was collected, the HBsAg immunoassay (microplate-based chemiluminescence immunoassay kits, CLIA, Autobio Diagnosics Co., Zhengzhou, China, Catalog #CL0310-2) was used to determine the level of HBsAg according to manufactory instruction. Dose-response curves were generated and the EC50 value (effective concentrations that achieved 50% inhibitory effect) were determined using XLfit software. In addition, cells were seeded at a density of 5,000 cells/well for determination of cell viability in the presence and absence of compounds by using CellTiter-Glo reagent (Promega).
The EC50 is the concentration needed to bring the measured effect to its halfway point. Regarding `Fc1cc(F)c2c(c1)CN(c1cnc(-c3ncccn3)nc1)CC2` [Example 1, 2-([2,2′-Bipyrimidin]-5-yl)-5,7-difluoro-1,2,3,4-tetrahydroisoquinoline], the EC50 came out at 1900 nM.

For `Fc1cc(F)c2c(c1)CN(c1ccnc(-c3ncccn3)n1)CC2` [Example 2, 2-([2,2′-Bipyrimidin]-4-yl)-5,7-difluoro-1,2,3,4-tetrahydroisoquinoline], the 50% effective concentration (EC50) stood at 1600 nM.

For `Fc1ccc2c(c1F)CCN(c1cnc(-c3ncccn3)nc1)C2` [Example 3, 2-([2,2′-Bipyrimidin]-5-yl)-5,6-difluoro-1,2,3,4-tetrahydroisoquinoline], the concentration giving a half-maximal response (EC50) was found to be 3400 nM.

Take `Fc1ccc2c(c1F)CCN(c1ccnc(-c3ncccn3)n1)C2` [Example 4, 2-([2,2′-Bipyrimidin]-4-yl)-5,6-difluoro-1,2,3,4-tetrahydroisoquinoline]: the half-maximal effective concentration (EC50) amounted to 900 nM.

Regarding `CC1CN(c2cnc(-c3ncccn3)nc2)Cc2ccccc21` (stereo not shown) [Example 5, 2-([2,2′-Bipyrimidin]-5-yl)-4-methyl-1,2,3,4-tetrahydroisoquinoline], the 50% effective concentration (EC50) is 34000 nM.

For the compound `CC1c2ccccc2CCN1c1cnc(-c2ncccn2)nc1` (stereo not shown) [Example 6, 1-Methyl-2-(2-pyrimidin-2-ylpyrimidin-5-yl)-3,4-dihydro-1H-isoquinoline], the concentration for a half-maximal effect (EC50) amounted to 1400 nM.

With `CC1c2ccccc2CCN1c1ccnc(-c2ncccn2)n1` (stereo not shown) [Example 7, 2-([2,2′-Bipyrimidin]-4-yl)-1-methyl-1,2,3,4-tetrahydroisoquinoline], the EC50 was 1900 nM.

With `CCC1Cc2ccccc2CN1c1ccnc(-c2ncccn2)n1` (stereo not shown) [Example 8, 2-([2,2′-Bipyrimidin]-4-yl)-3-ethyl-1,2,3,4-tetrahydroisoquinoline], the concentration for a half-maximal effect (EC50) is 2300 nM.

On to `c1cnc(-c2nccc(N3CCc4ccccc4C3)n2)nc1` [Example 9, 2-([2,2′-Bipyrimidin]-4-yl)-1,2,3,4-tetrahydroisoquinoline], for which the 50% effective concentration (EC50) amounted to 8500 nM.

Consider `CCC1c2ccccc2CCN1c1cnc(-c2ncccn2)nc1` (stereo not shown) [Example 10, 2-([2,2′-Bipyrimidin]-5-yl)-1-ethyl-1,2,3,4-tetrahydroisoquinoline], for which the half-maximal effective concentration (EC50) turned out to be 250 nM.

For `CCC1c2ccccc2CCN1c1ccnc(-c2ncccn2)n1` (stereo not shown) [Example 13, 2-([2,2′-Bipyrimidin]-4-yl)-1-ethyl-1,2,3,4-tetrahydroisoquinoline], the EC50 turned out to be 500 nM.

For `FC(F)(F)c1cccc2c1CN(c1cnc(-c3ncccn3)nc1)C2` [Example 14, 2-([2,2′-Bipyrimidin]-5-yl)-4-(trifluoromethyl)isoindoline], the concentration giving a half-maximal response (EC50) is 25000 nM.

For `CC1CN(c2ccnc(-c3ncccn3)n2)Cc2ccccc21` (stereo not shown) [Example 15, 2-([2,2′-Bipyrimidin]-4-yl)-4-methyl-1,2,3,4-tetrahydroisoquinoline], the EC50 stood at 1100 nM.

On to `CC1CN(c2cnc(-c3ncccn3)nc2)C(=O)c2ccccc21` (stereo not shown) [Example 16, 2-([2,2′-Bipyrimidin]-5 yl)-4-methyl-3,4-dihydroisoquinolin-1(2H)-one], for which the half-maximal effective concentration (EC50) was found to be 9100 nM.

For `Fc1cc2c(cc1F)CN(c1ccnc(-c3ncccn3)n1)CC2` [Example 17, 2-([2,2′-Bipyrimidin]-4-yl)-6,7-difluoro-1,2,3,4-tetrahydroisoquinoline], the EC50 is 610 nM.

In the case of `COc1cc2c(cc1OC)C1(CCC1)N(c1cnc(-c3ncccn3)nc1)CC2` [Example 18, 2′-([2,2′-Bipyrimidin]-5-yl)-6′,7′-dimethoxy-3′,4′-dihydro-2′H-spiro[cyclobutane-1,1′-isoquinoline]], the EC50 is 50000 nM.

For `CCC1c2ccccc2CN1c1cnc(-c2ncccn2)nc1` (stereo not shown) [Example 19, 2-([2,2′-Bipyrimidin]-5-yl)-1-ethylisoindoline], the EC50 was determined as 800 nM.

On to `c1cnc(-c2ncc(N3CC4CCC3c3ccccc34)cn2)nc1` (stereo not shown) [Example 20, 10-([2,2′-Bipyrimidin]-5-yl)-1,2,3,4-tetrahydro-1,4-(epiminomethano) naphthalene], for which the EC50 was 32000 nM.

In the case of `c1cnc(-c2ncc(N3CC4CC3c3ccccc34)cn2)nc1` (stereo not shown) [Example 21, 2-([2,2′-Bipyrimidin]-5-yl)-1,2,3,4-tetrahydro-1,4-methanoisoquinoline], the EC50 came out at 27000 nM.

`c1cnc(-c2ncc(N3C4CCC3c3ccccc34)cn2)nc1` [Example 22, 9-([2,2′-Bipyrimidin]-5-yl)-1,2,3,4-tetrahydro-1,4-epiminonaphthalene]: the concentration giving a half-maximal response (EC50) was determined as 21000 nM.

Consider `CCCC1c2ccccc2CCN1c1ccnc(-c2ncccn2)n1` (stereo not shown) [Example 23, 2-([2,2′-Bipyrimidin]-4-yl)-1-propyl-1,2,3,4-tetrahydroisoquinoline], for which the EC50 turned out to be 1000 nM.

Consider `CC1c2ccc(F)c(F)c2CCN1c1cnc(-c2ncccn2)nc1` (stereo not shown) [Example 24, 2-([2,2′-Bipyrimidin]-5-yl)-5,6-difluoro-1-methyl-1,2,3,4-tetrahydroisoquinoline], for which the EC50 amounted to 340 nM.

Consider `CCC1c2cc(F)c(F)cc2CCN1c1cnc(-c2ncccn2)nc1` (stereo not shown) [Example 25, 2-([2,2′-Bipyrimidin]-5-yl)-1-ethyl-6,7-difluoro-1,2,3,4-tetrahydroisoquinoline], for which the EC50 was 85 nM.

As for `COC(=O)CC1c2cc(OC)c(OC)cc2CCN1c1cnc(-c2ncccn2)nc1` (stereo not shown) [Example 26, Methyl 2-(2-([2,2′-bipyrimidin]-5-yl)-6,7-dimethoxy-1,2,3,4-tetrahydroisoquinolin-1-yl) acetate], the EC50 was determined as 1200 nM.

`COc1cc2c(cc1OC)C(CC(=O)O)N(c1cnc(-c3ncccn3)nc1)CC2` (stereo not shown) [Example 27, 2-(2-([2,2′-Bipyrimidin]-5-yl)-6,7-dimethoxy-1,2,3,4-tetrahydroisoquinolin-1-yl) acetic Acid]: the concentration giving a half-maximal response (EC50) came to 28000 nM.

With `CCC1c2ccc(OC)c(OC)c2CCN1c1cnc(-c2ncccn2)nc1` (stereo not shown) [Example 28, 2-([2,2′-Bipyrimidin]-5-yl)-1-ethyl-5,6-dimethoxy-1,2,3,4 Tetrahydroisoquinoline], the EC50 was found to be 180 nM.

For `CCC1c2cc(OC)c(F)c(F)c2CCN1c1cnc(-c2ncccn2)nc1` (stereo not shown) [Example 29, 1-Ethyl-5,6-difluoro-7-methoxy-2-(2-pyrimidin-2-ylpyrimidin-5-yl)-3,4-dihydro-1H-isoquinoline], the 50% effective concentration (EC50) worked out at 170 nM.

Regarding `CCC1c2ccc(F)c(F)c2CCN1c1cnc(-c2ncccn2)nc1` (stereo not shown) [Example 32, 1-Ethyl-5,6-difluoro-2-(2-pyrimidin-2-ylpyrimidin-5-yl)-3,4-dihydro-1H-isoquinoline], the concentration giving a half-maximal response (EC50) was 2000 nM.

Regarding `CCC1c2c(OC)ccc(F)c2CCN1c1cnc(-c2ncccn2)nc1` (stereo not shown) [Example 35, 1-Ethyl-5-fluoro-8-methoxy-2-(2-pyrimidin-2-ylpyrimidin-5-yl)-3,4-dihydro-1H-isoquinoline], the 50% effective concentration (EC50) amounted to 620 nM.

In the case of `CC1c2ccc(F)c(F)c2CCN1c1ccnc(-c2ncccn2)n1` (stereo not shown) [Example 36, 2-([2,2′-Bipyrimidin]-4-yl)-5,6-difluoro-1-methyl-1,2,3,4-tetrahydroisoquinoline], the 50% effective concentration (EC50) was 480 nM.

For `CCC1c2ccc(F)c(F)c2CCN1c1ccnc(-c2ncccn2)n1` (stereo not shown) [Example 39, 1-Ethyl-5,6-difluoro-2-(2-pyrimidin-2-ylpyrimidin-4-yl)-3,4-dihydro-1H-isoquinoline], the concentration for a half-maximal effect (EC50) came to 590 nM.

Consider `CCC1c2c(OC)ccc(F)c2CCN1c1ccnc(-c2ncccn2)n1` (stereo not shown) [Example 42, 1-Ethyl-5-fluoro-8-methoxy-2-(2-pyrimidin-2-ylpyrimidin-4-yl)-3,4-dihydro-1H-isoquinoline], for which the EC50 amounted to 62 nM.

Take `CCC1c2ccc(F)c(OC)c2CCN1c1ccnc(-c2ncccn2)n1` (stereo not shown) [Example 46, 1-Ethyl-6-fluoro-5-methoxy-2-(2-pyrimidin-2-ylpyrimidin-4-yl)-3,4-dihydro-1H-isoquinoline]: the EC50 turned out to be 130 nM.

As for `CCC1c2cc(OC)c(F)c(F)c2CCN1c1ccnc(-c2ncccn2)n1` (stereo not shown) [Example 47, 1-Ethyl-5,6-difluoro-7-methoxy-2-(2-pyrimidin-2-ylpyrimidin-4-yl)-3,4-dihydro-1H-isoquinoline], the EC50 turned out to be 480 nM.

For `CCC1c2cc(F)c(F)cc2CN1c1ccnc(-c2ncccn2)n1` (stereo not shown) [Example 48, 2-([2,2′-Bipyrimidin]-4-yl)-1-ethyl-5,6-difluoroisoindoline], the EC50 is 92 nM.

For the compound `CCC1c2cc(F)c(F)cc2CN1c1nc(-c2ncccn2)ncc1F` (stereo not shown) [Example 51, 1-Ethyl-5,6-difluoro-2-(5-fluoro-[2,2′-bipyrimidin]-4-yl)isoindoline], the EC50 was found to be 27 nM.

Turning to `CCC1c2cc(F)c(F)cc2CN1c1nc(-c2ncccn2)ncc1C` (stereo not shown) [Example 52, 1-Ethyl-5,6-difluoro-2-(5-methyl-[2,2′-bipyrimidin]-4-yl)isoindoline], the EC50 was 43 nM.

As to `CCC1c2cc(F)c(F)cc2CN1c1nc(-c2ncccn2)ncc1Cl` (stereo not shown) [Example 53, 2-(5-Chloro-[2,2′-bipyrimidin]-4-yl)-1-ethyl-5,6-difluoroisoindoline], the concentration for a half-maximal effect (EC50) stood at 30 nM.

Regarding `CCC1c2cc(F)c(F)cc2CN1c1nc(-c2ncccn2)ncc1C1CC1` (stereo not shown) [Example 54, 2-(5-Cyclopropyl-[2,2′-bipyrimidin]-4-yl)-1-ethyl-5,6-difluoroisoindoline], the EC50 is 220 nM.

The assay is the same for the next values; noted with them: read-out: sAg EC50; HepG2.2.15 cells, supernatant collected at day 6 after exposure, HBsAg CLIA.
Take `CCC1c2cc(F)c(OC)cc2CCN1c1cnc(-c2ncccn2)nc1` (single isomer, unassigned) [Example 134, 2-(2,2′-Bipyrimidin-5-yl)-1-ethyl-7-fluoro-6-methoxy-1,2,3,4-tetrahydroisoquinoline]: the EC50 worked out at 54 nM.
